Measurements as given in patent publication US20220146526A1, “METHOD FOR EVALUATING SAMPLE, ANALYSIS METHOD, METHOD FOR DETECTING DEGRADED SAMPLE, MARKER FOR DETECTING DEGRADED BLOOD PLASMA SAMPLE, AND MARKER FOR DETECTING DEGRADED SERUM SAMPLE” (SHIMADZU CORPORATION, priority 2019, published 2022).

Tests used:
Type in all cases: physicochemical, human
[1] = GC/MS of blood plasma sample: number of times of freezing and thawing (Table C); details: for Rate of increase or decrease: detection intensity relative to 1 at 2 times; for Increase or decrease: detection intensity
Experimental: (§1) At room temperature, 5 mL of blood from a healthy subject was taken into a blood-collecting vessel containing EDTA, and the blood-collecting vessel was inverted for mixing, then cooled, and allowed to stand at 4° C. Here, in order to investigate how the detection intensity of molecules contained in the sample was affected in a case where the time to cooling was set to 5 minutes or more as compared to that in a case where the time to cooling was set to 1 minute or less, preparations were performed under both the former condition and the latter condition. After standing, the blood sample was subjected to centrifugation under a condition of 4° C., 3000 rpm, and 15 minutes. […] After centrifugation, the blood-collecting vessel was left to stand at room temperature for 30 minutes, and the blood plasma was isolated during this 30 minutes. The obtained blood plasma sample was frozen and stored. Here, in order to investigate how the detection intensity of molecules contained in the sample was affected in cases where freezing and thawing was performed 4 times, 6 times, and 10 times after freezing as compared to that in a case where freezing and thawing was performed 2 times after freezing, freezing and thawing was performed under the respective conditions of 2, 4, 6, and 10 times.
(§2) Frozen blood plasma samples and serum samples were subjected to GC/MS or LC/MS. In GC/MS, the blood plasma samples and serum samples were subjected to methoxymation and trimethylsilylation and then introduced to GC-MS.
(§3) GC/MS was conducted using GCMS·TQ8040 (Shimadzu Corporation) that was a GC·MS equipped with AOC·20i (Shimadzu Corporation) as an autosampler.
(§4) Column: BPX5 (inner diameter of 0.25 mm, length of 30 m, and film thickness of 0.25 μm) (SGE)
(§5) Column temperature: maintained at 60° C. for 2 minutes, then raised at 15° C./min, and maintained at 330° C. for 3 minutes.
(§6) Inlet temperature: 250° C.
(§7) Carrier gas control mode: constant linear velocity of 39.0 cm/sec
(§8) Sample introduction method: split (split ratio of 30:1) Injection volume: 1 μL
(§9) Ionization method: electron ionization
(§10) Ionization current: 60 μA
(§11) Interface temperature: 280° C.
(§12) Ion source temperature: 200° C.
(§13) Mode: multiple reaction monitoring (MRM)
The rate of increase or decrease in Table C is the value of detection intensity relative to 1 that is the detection intensity in a case where the number of times of freezing and thawing is set to 2 times.

[2] = GC/MS of blood plasma sample: time from blood collection to cooling of blood (Table B); parameters: key to Rate of increase or decrease / Rate of increase or decrease (first value, increase): detection intensity relative to 1 at cooling time ≤1 min; details: for Increase or decrease: detection intensity, blood collection to cooling 5 minutes or more vs 1 minute or less; for Rate of increase or decrease: detection intensity relative to 1 at 1 minute or less, blood collection to cooling 5 minutes
Experimental: as §1, §2, §3, §4, §5, §6, §7, §8, §9, §10, §11, §12, §13
Table B presents compounds of which the detection intensity increased or decreased by 30% or more in a case where the time from blood collection to cooling of blood, when a blood plasma sample was analyzed by GC/MS, was set to 5 minutes or more as compared to that in a case where the time was set to 1 minute or less. The rate of increase or decrease in Table B is the value of detection intensity relative to 1 that is the detection intensity in a case where the time from blood collection to cooling is set to 1 minute or less.

[3] = GC/MS of serum sample: number of times of freezing and thawing (Table I); parameters: key to Rate of increase or decrease / Rate of increase or decrease (first value, increase): detection intensity relative to 2 freeze-thaw cycles = 1; details: serum, GC/MS; for Rate of increase or decrease: detection intensity relative to 1 at 2 times, freezing and thawing 4 times; for Increase or decrease: detection intensity, freezing and thawing 4 times vs 2 times
How it was run: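 Serum was isolated after centrifugation at room temperature (3500 rpm, 5 min), frozen, and put through 2, 4, 6 or 10 freeze–thaw cycles. Samples were methoxymated and trimethylsilylated, then run by electron-ionization GC/MS in MRM mode on a BPX5 column (60 to 330 °C). Detection intensity is given relative to the 2-cycle sample, set as 1.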

[4] = GC/MS of serum sample: time from blood collection to centrifugation (Table G); details: blood collection to centrifugation; for Rate of increase or decrease: detection intensity relative to 1 at 15 minutes, after 4 hours; for Increase or decrease: detection intensity, after 4 hours vs 15 minutes
How it was run: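 Blood was held for varying times before centrifugation (room temperature, 3500 rpm, 5 min); serum was frozen, then methoxymated and trimethylsilylated for GC/MS with electron ionization in MRM mode. Values are detection intensities relative to the 15-minute collection-to-centrifugation condition, set as 1.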

[5] = GC/MS of serum sample: time from centrifugation to isolation (Table H); parameters: key to Rate of increase or decrease / Rate of increase or decrease (first value, increase): detection intensity relative to 1 at 30 min centrifugation-to-isolation; details: for Increase or decrease: detection intensity
How it was run: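 Blood was centrifuged at room temperature, 3500 rpm, 5 min, and the vessel left at room temperature for 30 min, 1 h or 6 h before serum isolation. Serum was methoxymated, trimethylsilylated and analysed by GC/MS with electron ionization in MRM mode; intensities expressed relative to the 30-min condition (=1).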

[6] = GC/MS of blood plasma sample: time from blood collection to centrifugation (Table A)
Experimental: as §1, §2, §3, §4, §5, §6, §7, §8, §9, §10, §11, §12, §13
The rate of increase or decrease in Table A is the value of detection intensity relative to 1 that is the detection intensity in a case where the time from blood collection to centrifugation is set to 15 minutes.

[7] = freezing and thawing 6 times vs 2 times

Increase or decrease [2] | Rate of increase or decrease [3] | Increase or decrease [3] | Increase or decrease [1, 7] | Rate of increase or decrease [2] | Structure (SMILES) | Rate of increase or decrease ([1]; freezing and thawing 6 times) | Rate of increase or decrease [4] | Increase or decrease [4] | also measured
Different from individual | 0.68 | Decrease |  |  | O=C(O)C(O)Cc1ccccc1 (stereo not shown) [3-Phenyllactic acid] |  |  |  | Rate of increase or decrease ([1]; freezing and thawing 10 times): 0.62; Increase or decrease ([1]; freezing and thawing 10 times vs 2 times): Decrease; Rate of increase or decrease (second value, decrease) ([2]; different from individual to individual, individuals with decrease, relative to 1 at 1 minute or less, collection to cooling 5 minutes): 0.60; Rate of increase or decrease (first value, increase) ([2]; different from individual to individual, individuals with increase, relative to 1 at 1 minute or less, collection to cooling 5 minutes): 1.47
Increase |  |  | Decrease | 1.31 | CC(C)CC(O)C(=O)O (stereo not shown) [2-Hydroxyisocaproic acid] | 0.66 |  |  | 
Decrease |  |  |  | 0.67 | CCC(=O)C(=O)O [2-Ketobutyric acid] |  |  |  | Increase or decrease ([6]; detection intensity, blood collection to centrifugation, after 4 hours vs 15 minutes): Different from individual; Rate of increase or decrease (second value, decrease) ([6]; different from individual to individual, individuals with decrease, relative to 1 at 15 minutes, collection to centrifugation, after 4 hours): 0.64; Rate of increase or decrease (first value, increase) ([6]; different from individual to individual, individuals with increase, relative to 1 at 15 minutes, collection to centrifugation, after 4 hours): 1.48
Increase | 1.68 | Increase | Different from individual |  | O=C[C@H](O)[C@H](O)[C@H](O)CO [Ribose] |  | 0.41 | Decrease | Rate of increase or decrease (second value, decrease) ([1]; different from individual to individual, individuals with decrease, relative to 1 at 2 times, freezing and thawing 6 times): 0.70; Rate of increase or decrease (first value, increase) ([1]; different from individual to individual, individuals with increase, relative to 1 at 2 times, freezing and thawing 6 times): 1.39; Rate of increase or decrease ([5]; detection intensity relative to 1 at 30 minutes, after 1 hour): 1.76; Increase or decrease ([5]; after 1 hour vs 30 minutes): Increase

Structure (SMILES) | Increase or decrease [2] | Rate of increase or decrease [3] | Increase or decrease [3] | Increase or decrease [1, 7] | Rate of increase or decrease [2] | Rate of increase or decrease ([1]; freezing and thawing 6 times) | Rate of increase or decrease [4] | Increase or decrease [4] | also measured
CC(=O)NCCCC[C@H](N)C(=O)O [N6-acetyllysine] | Decrease | 0.67 | Decrease | Decrease | 0.61 | 0.57 | 1.55 | Increase | Increase or decrease ([5]; after 6 hours vs 30 minutes): Different from individual; Rate of increase or decrease (second value, decrease) ([5]; different from individual to individual, individuals with decrease, relative to 1 at 30 minutes, after 6 hours): 0.58; Rate of increase or decrease (first value, increase) ([5]; different from individual to individual, individuals with increase, relative to 1 at 30 minutes, after 6 hours): 1.71
